From US7750028B2, “Crystal modifications of 1-(2,6-difluorobenzyl)-1H-1, 2,3-triazole-4-carboxamide” (Novartis AG, priority 1997, dated 2010)

What was measured:
Format in all cases: physicochemical
[1] = dissolution rate in gastric fluid; conditions: comparison between modifications
[2] = dissolution rate in water; conditions: comparison between modifications
[3] = thermodynamic investigations (thermomicroscopy, X-ray powder diffractometry, DSC, solubility tests) of crystal modifications; conditions: for thermodynamic stability: comparison of the crystal modifications A/A′, B and C
Text: The modification A or A′ has significant advantages compared with the modification B and compared with the modification C.

dissolution rate [1] | dissolution rate [2] | conversion of the crystals into modification B ([3]; at as low as room temperature) | SMILES | thermodynamic stability ([3]; listed as A′) | thermodynamic stability ([3]; listed as Modification C) | conversion into other modifications ([3]; depending on experimental conditions) | thermodynamic stability [3]
slower dissolution rate | slower dissolution rate |  | NC(=O)c1cn(Cc2c(F)cccc2F)nn1 [modification A′, 1-(2,6-difluorobenzyl)-1H-1,2,3-triazole-4-carboxamide] | substantially better thermodynamic stability than the modifications B and C |  |  | 
 |  | within a few weeks | NC(=O)c1cn(Cc2c(F)cccc2F)nn1 [modification C, 1-(2,6-difluorobenzyl)-1H-1,2,3-triazole-4-carboxamide] |  | the least stable of the three modifications | converted either into the modification A or A′ or into the modification B | 
slower dissolution rate | slower dissolution rate |  | NC(=O)c1cn(Cc2c(F)cccc2F)nn1 [modification A, 1-(2,6-difluorobenzyl)-1H-1,2,3-triazole-4-carboxamide] |  |  |  | substantially better thermodynamic stability than the modifications B and C
substantially faster dissolution rate | substantially faster dissolution rate |  | NC(=O)c1cn(Cc2c(F)cccc2F)nn1 [modification B, 1-(2,6-difluorobenzyl)-1H-1,2,3-triazole-4-carboxamide] |  |  |  | 
